PMC6501426 (Clinical Epigenetics, 2019)
Where two headings read alike, the source gives them in different places.

Legend:
RPMI1788 cells = experiment: Nuclear morphology analysis (Hoechst/PI); type: cell-based; settings: 72 h; starting from 5 μM; normal cells
Experimental: (§1) Proliferation and viability of U-937, KG-1, RAJI, PC-3, MDA-MB-231, RPMI1788, PBMCs, and PHA_PBMCs were assessed by trypan blue exclusion assays at the indicated time points. Nuclear morphology changes associated with apoptosis and necrosis were evaluated by fluorescence microscopy after Hoechst and propidium iodide (PI) staining as previously described.
Fig. 6 Nuclear morphology analysis in U-937, RAJI, KG-1, and RPMI1788 cells. Cells were treated with increasing doses of MC3353. Upper panels—after 72 h of treatment, the nuclear morphology was analyzed by fluorescence microscopy after Hoechst and PI staining. Pictures are representative of three independent experiments. Lower panels—the results of cell counting are represented as the mean (± SD) of three independent experiments

[1] = system: KG-1, U-937, RAJI, PC-3, MDA-MB-231 cancer cells; experiment: Viability in panel of cancer cells; type: cell-based; settings: Homo sapiens, 48 h of treatment, range over KG-1, U-937, RAJI, read-out: IC50 values, proliferation/viability in cancer cell panel
Experimental: as §1
IC50 values of compounds against cellular viability were determined by using nonlinear regression fitting curves with GraphPad Prism 8 or CalcuSyn software The t test used for statistical analyses was performed with GraphPad Prism 8. All the tests were one-tailed, and a p value < 0.05 was considered statistically significant.

[2] = system: OCN expression in Saos-2 cells; experiment: Saos-2 osteoblast differentiation, RT-qPCR; type: cell-based, human; settings: 0.5 and 1 μM, along 3 weeks, osteogenic medium
Experimental: (§2) Four days after seeding, Saos-2 cells were exposed to specific osteogenic medium (IMDM supplemented with 2% FBS, 5 mM β-glycerophosphate, and 50 μg/mL ascorbic acid, Sigma-Aldrich, Milan, Italy) without (control) or with MC3353 (0.5–1 μM) or DAC (0.1–0.5 μM) and maintained in differentiating conditions for up to 21 days. The medium was renewed every 4 days, and the cells were harvested at various time points to collect total RNA and verify bone mineralization. Specific osteoblastic markers were evaluated by quantitative real-time PCR (RT-qPCR) as previously described. The primers or assays (Applied Biosystems, Foster City, CA, USA) used are as follows: GAPDH (forward: 5′-[…]-3′, reverse: 5′-[…]-3′ and probe: 5′-[…]-3′), OCN (forward: 5′-[…]-3′, reverse: 5′-[…]-3′), ALP (Hs01029144_m1), and COL1A2 (Hs01028970_m1). Amplification reactions were performed using a ViiA7™ Real-Time PCR System (Life Technologies, Carlsbad, CA, USA). To visualize bone mineralization (osteoblastic differentiation) after 7–21 days of MC3353 or DAC treatment, the plates were stained with 40 mM Alizarin red stain (ARS, Sigma-Aldrich, Milan, Italy). ARS staining was visualized with an ECLIPSE 90i microscope (Nikon, Minato, Tokyo, Japan) equipped with Plan fluor 10× NA 0.3. Images were acquired with an autocapture setting using a digital color camera (Nikon DS5 MC) and NIS-Elements AR3.10 software (Nikon, Minato, Tokyo, Japan).

[3] = system: COL1A2 expression in Saos-2 cells; experiment: Saos-2 osteoblast differentiation, RT-qPCR; type: cell-based, human; settings: 0.5 and 1 μM, along 3 weeks, osteogenic medium
Experimental: as §2

[4] = system: ALP expression in Saos-2 cells; experiment: Saos-2 osteoblast differentiation, RT-qPCR; type: cell-based, human; settings: 0.5 and 1 μM, only at the most extended exposure (day 21)
Experimental: as §2

KG-1 cells = experiment: Antiproliferative activity in KG-1 cells (Table S1); type: cell-based; settings: Homo sapiens, read-out: % inhibition of proliferation, KG-1 cells
Experimental: To determine the antiproliferative activity of MC3353 in KG-1 cells, the cells were seeded at day 0 in a 96-well plate and treated with test compound solutions at a dose range spanning from 3.2 × 10^−9 to 1 × 10^−5 M at days 1, 2, and 3. On day 4, cell viability was assessed using the ATPLite kit (PerkinElmer, Villebon-sur-Yvette, France).
Afterwards, MC3353 was tested in KG-1 leukemia cells for its ability to reactivate gene expression in a stably integrated luciferase reporter construction under the control of a CMV promoter inhibited by DNA methylation (CMV-luc assay). After 5 or 24 h of incubation in the presence of drugs at the indicated concentrations, the luciferase signal was measured and normalized to the value of the non-treated cells (Table 2). Since the CMV-luc assay is highly compromised when the tested compounds induce cell death, the cytotoxicity of MC3353 against KG-1 cells at 5 and 24 h was determined in parallel. MC3353 was highly toxic for KG-1 cells after 24 h of treatment starting from a concentration of 1 μM (Additional file 1: Table S1 and indicated in stars in Table 2).

[5] = system: E-cadherin protein in PC-3 cells; experiment: Western blot of E-cadherin in PC-3; type: cell-based, human; settings: 1 μM, 24 h
Excerpt: Cells were lysed in Laemmli buffer; subsequently, the proteins were resolved by sodium dodecyl sulfate-polyacrylamide gel electrophoresis and transferred to a 0.45-μm nitrocellulose membrane (Bio-Rad Laboratories, Hercules, CA). The following primary antibodies were used for immunoblotting: α-E-cadherin (BD Transduction Laboratories, Franklin Lakes, NJ), α-MMP2 (Abcam), α-DNMT3a (Santa Cruz Biotechnologies, Dallas, TX), and α-GAPDH (Millipore Corp., Bedford, MA), used as a loading control. The immune complexes were detected with horseradish peroxidase-conjugated species-specific secondary antiserum (Bio-Rad Laboratories, Milan, Italy) then by enhanced chemiluminescence reaction (Bio-Rad Laboratories, Milan, Italy). Densitometric analysis of protein expression was performed by using the Fiji ImageJ image processing package.
Fig. 8 Effects of MC3353 on E-cadherin and MMP2 protein expression levels in PC-3 cancer cells. Cells were treated with vehicle (DMSO) used as control (CTR) or MC3353 for 24 h. a E-cadherin and MMP2 protein detection by western blot. GAPDH was used as a loading control. Blots are representative of three independent experiments. b Densitometric analysis of E-cadherin and MMP2 protein expression. Significance is represented as *p < 0.05 related to the control groups. Data were obtained from three independent experiments and expressed as mean ± SEM

Saos-2 cells = experiment: Saos-2 matrix mineralization, Alizarin red staining; type: cell-based, human; settings: 7–21 days, differentiation medium
Experimental: as §2, with “Images were acquired with an autocapture setting using a digital color camera (Nikon DS5 MC) and NIS-Elements AR3.10 software (Nikon, Minato, Tokyo, Japan).” left out

## O=C(Nc1ccc(NC(=O)c2ccc(Nc3ccnc4ccccc34)cc2)cc1)OCc1ccccc1 [MC3353, Benzyl (4-(4-(quinolin-4-ylamino)benzamido)phenyl)carbamate]
RPMI1788 cells
  cell death modality, RPMI1788: mixed type of cell death induction, mainly necrosis
[1]
  IC50: 300 to 900 nM
[2]
  OCN expression, Saos-2: increased OCN expression
[3]
  COL1A2 expression, Saos-2: dose-dependently decreased COL1A2 expression
[4]
  ALP expression, Saos-2: weak induction of ALP expression
KG-1 cells; 5h
  inhibition at 0.1 µM: 5.5%
  inhibition at 1 µM: 17.7%
  inhibition at 5 µM: 81.2%
  inhibition at 10 µM: 96.8%
KG-1 cells; 24h
  inhibition at 0.1 µM: 2.9%
  inhibition at 1 µM: 98.7%
  inhibition at 5 µM: 100%
  inhibition at 10 µM: 100%
[5]
  E-cadherin protein expression (western blot, densitometry), PC-3: significantly induced E-cadherin expression
Saos-2 cells
  mineralized matrix production (ARS staining), Saos-2: augment mineralized matrix production
